Type in all cases: toxicity, tissue-based
Data set [1] is described as follows: Cardiotoxicity in Langendorff-perfused Wistar rat heart assessed as effect on RR time at 0.1 uM by ECG analysis (reference value: 239.5+/-9.2 milliseconds).
Data set [2] can be described thus: Cardiotoxicity in Langendorff-perfused Wistar rat heart assessed as effect on PQ interval time at 0.01 uM by ECG analysis (reference value: 45.4+/-3.9 milliseconds).
Data set [3] can be described thus: Cardiotoxicity in Langendorff-perfused Wistar rat heart assessed as effect on RR time at 10 uM by ECG analysis (reference value: 239.5+/-9.2 milliseconds).
Data set [4] is described as follows: Cardiotoxicity in Langendorff-perfused Wistar rat heart assessed as effect on QTc interval time at 10 uM by ECG analysis (reference value: 66.4+/-1.3 milliseconds).
A short description of data set [5]: Cardiotoxicity in Langendorff-perfused Wistar rat heart assessed as effect on QRS interval time at 10 uM by ECG analysis (reference value: 13.3+/-0.6 milliseconds).
Data set [6] can be described thus: Cardiotoxicity in Langendorff-perfused Wistar rat heart assessed as effect on QT interval time at 1 uM by ECG analysis (reference value: 66.1+/-1.1 milliseconds).

The values that follow come from ChEMBL document CHEMBL5113395, “Azetidin-2-one-based small molecules as dual hHDAC6/HDAC8 inhibitors: Investigation of their mechanism of action and impact of dual inhibition profile on cell viability” (Eur J Med Chem, 2022).

For the compound `O=C(NO)c1ccc(CNC(=O)N2CCC(N3CC(c4ccccc4)(c4ccccc4)C3=O)CC2)cc1`, the Time was 233.1 ms in data set [1]; 44.4 ms in data set [2]; 241.5 ms in data set [3]; 68.6 ms in data set [4]; 13.9 ms in data set [5]; 68.1 ms in data set [6].
